# Measurements from patent US20260327655A1, “SMALL-MOLECULE REGULATED ALTERNATIVE SPLICING” (priority 2023, published 2026).
# How the values were obtained:
# RS1-10, Flp-In-293 cells = test: Comparison of RS1-10 Flp-In cell line with constitutive Flp-In cell line; type: cell-based; conditions: Homo sapiens, 7 nM, 18 hours, FIG. 9G, read-out: luciferase signal relative to constitutively expressing cell line as 100%
# Description: Single-copy insertion of RSI-10 sequence and subsequent cell-line generation was performed in Flp-In-293 cells according to manufacturer's protocols. The RS1-10 sequence fused to a Firefly Luciferase gene was cloned into a Flp-In compatible pcDNA5/FRT expression vector with a CMV promoter and BGH polyadenylation signal. The resulting Flp-In cell line carried a single-copy expression cassette of RS1-10 integrated into the genome. Similarly, a cell line constitutively expressing Firefly Luciferase from a single-copy genomic insertion was generated in Flp-In-293 cells. For the constitutive cell line, only the Firefly Luciferase gene was cloned into the pcDNA5/FRT expression vector that was used to generate the single-copy genomic insertion. Both cell lines were cultured in DMEM+10% FBS, collected after trypsinization, and then dispensed into 96-well plates (cell culture-treated). Each well of the plate was seeded with 1.0×10^5 cells in 100 μL culture medium. Subsequently, either DMSO vehicle or 24 A at specified doses was added to the wells of the plate containing the RS1-10 Flp-In 293 cells. Triplicate wells were used for each condition tested in the experiment. Plates were then incubated for 18 hours in a tissue culture incubator (5% CO2, 37 degrees C.). […]
# [1] = test system: RS2-3 minigene (Firefly Luciferase), HEK-293T cells; test: Luciferase induction assay, RS2-3 with splice modulator compounds in HEK-293T cells; type: cell-based; conditions: Homo sapiens, 18 hours, n of 3, read-out: Mean fold-induction of luciferase (relative to vehicle control)
# RS1-10, HEK-293T cells = test: RS1-10 performance in HEK-293T cells; type: cell-based, human; conditions: CMV promoter, 18 hours, FIG. 10A
# Description: Human cell line HEK-293T cells or NIH-3T3 mouse fibroblast cell line cells were cultured in DMEM+10% FBS, collected after trypsinization, and then dispensed into 96-well plates (cell culture-treated). Each well of the plate was seeded with 1.0×10^5 cells in 100 μL culture medium. After a 1-hour incubation in the tissue culture incubator (5% CO2, 37 degrees C.), plasmid DNA was complexed with a transfection reagent, such as Lipofectamine 3000, and added to respective wells on the plate. Each well received an equivalent of 100 ng of plasmid DNA complexed with 0.15 μL Lipofectamine 3000. Triplicate wells were used for each condition tested in the experiment. The plasmid utilized in the experiments for HEK-293T cells and NIH-3T3 mouse fibroblast cells encoded a CMV promoter upstream of the RS1-10 construct that controlled the expression of a Firefly Luciferase gene followed by a SV40 polyadenylation signal. After a 10-minute incubation at room temperature, either DMSO vehicle or 24 A at specified doses was added to the wells of the plate. Plates were then incubated for 18 hours in a tissue culture incubator. Endpoint analysis was performed by adding 100 uL of a Luciferase substrate, such as Steady-Luc Firefly Luciferase substrate, to each well of the assay plate. […] Finally, the luminescent signal from each well was measured with a plate reader. […]
# RS4-1 and variants = test: Luciferase induction assay, RS4-1 and variants in HEK-293T cells; type: cell-based, human; conditions: 18 hours, FIGS. 15A, 15B
# Description: HEK-293T cells were cultured in DMEM+10% FBS, collected after trypsinization, and dispensed into 96-well plates (cell culture-treated). Each well of the plate was seeded with 1.0×10^5 cells in 100 μL culture medium. After a 1-hour incubation in the tissue culture incubator (5% CO2, 37° C.), plasmid DNA was complexed with a transfection reagent, such as Lipofectamine 3000, and added to respective wells on the plate. Each well received 100 ng of plasmid DNA complexed with 0.15 μL Lipofectamine 3000. The plasmids utilized in the experiment encoded a CMV promoter upstream of the RS4-1 construct and variants that controlled the expression of a Firefly Luciferase gene followed by a SV40 polyadenylation signal. After a 10-minute incubation at room temperature, either DMSO vehicle or 24 A at specified doses was added to the wells of the plate. Plates were then incubated for 18 hours in a tissue culture incubator. Endpoint analysis was performed by adding 100 uL of a Luciferase substrate, such as Steady-Luc Firefly Luciferase substrate, to each well of the assay plate. The liquid contents of each was transferred to a 96-well plate, mixed again for 2 min on an orbital shaker, and incubated at room temperature for 5 min. Finally, the luminescent signal from each well was measured with a plate reader. […]
smiles,measurement,setting,value
"CCN1CC(c2ccc(-c3ccc(-c4ccc5nn(C)cc5c4)cc3O)nn2)C1 [Compound 24A, 2-[6-(1-ethylazetidin-3-yl)pyridazin-3-yl]-5-(2-methyl-2H-indazol-5-yl)phenol]",activity at 0.007 µM,"RS1-10, Flp-In-293 cells",≥ 60%
same,fold induction at 0.1 µM,"[1]; RS2-3, 100 nM",14.5
same,fold induction at 1 µM,"[1]; RS2-3, 1,000 nM",42.6
same,fold-induction of luciferase,"RS1-10, HEK-293T cells",increasing fold-induction of luciferase with increasing concentrations of 24 A
same,fold-induction of luciferase,RS4-1 and variants,increasing fold-induction of luciferase with increasing concentrations
